According to patent US20060057559A1, “High-throughput cell migration screening assay” (Rigel Pharmaceuticals, Inc., priority 2004, published 2006):
“Also recorded” adds a separate entry of the source. Counter-ions that a name gives are not always drawn.

How the values were obtained:
[1] = molecular target: T1, EDG1 (Homo sapiens, UniProt P21453); experiment: Migration assay employing EDG1 as a migration molecule (T lymphoid cells overexpressing EDG1 migrating toward S1P, 96-well, CyQuant GR fluorescence); assay type: cell-based; conditions: migration in response to S1P, hydrochloride
T1 construct: expressed in transfected cells; host or cells: T lymphoid cell line (Jurkat, EDG1 #15 clone), retroviral TIM EDG1 vector, tetracycline-regulated
Method: (§1) Both cell lines were used to optimize assay parameters in order to maximize accuracy and throughput in an automated 96-well format. Compounds were added together with S1P in bottom receiver plate; lipid starved cells were placed in the upper filter plate. The T cell migration may be finished in 2 to 4 hours. The cells which migrated to the receiver plate were stained with a fluorescence dye (CyQuant GR™) and detected by a fluorescence plate reader.
On day one, EDG1 expressing cells were grown at 0.4 millions/ml in RPMI 1640 containing 10% lipid-free serum (Charcoal-Dextran-Stripped Fetal Bovine Serum, Cat# 100-502 (Gemini Bioproducts™)) for 24 hours. EDG1 cells are maintained below 1 million/ml at all times. On the next day, cells were spun down, washed once with serum-free medium and re-suspended in RPMI 1640 containing 0.1% BSA (fat-free, cell culture tested) (Cat# A8806 (SIGMA ALDRICH FLUKA CHEMICALS™)) at a density of 6×10^6 per ml. 170 μl RPMI 1640 (0.1% BSA) containing 20 nM S1P (Cat# SL-140 (BioMol™)) and/or desired drugs were added to the receiver plate of […] Millipore Multiscreen MIC™ plates (Cat# MAMI C3S 10, 3 um pore size (Millipore™)) and the filter plates were carefully placed over the receiver plate. […] After 30 min agitating at RT, the plate was read in a fluorescence plate reader using 480/520 nm filter set.

[2] = molecular target: T2, EDG3 (Homo sapiens, UniProt Q99500); experiment: Migration assay employing EDG3 as a migration molecule (T lymphoid cells overexpressing EDG3 migrating toward S1P, 96-well, CyQuant GR fluorescence); assay type: cell-based
T2 construct: expressed in transfected cells; host or cells: T lymphoid cell line (Jurkat, EDG3 #1 clone), pNIGEDG3 vector, constitutive expression
Method: as §1
On day one, EDG3 expressing cells were grown at 0.8 millions/ml in RPMI 1640 containing 10% lipid-free serum (Charcoal-Dextran-Stripped Fetal Bovine Serum, Cat# 100-502 (Gemini Bioproducts™)) for 24 hours. EDG3 cells are maintained below 3 million/ml at all times. On the next day, cells were spun down, washed once with serum-free medium and re-suspended in RPMI 1640 containing 0.1% BSA (fat-free, cell culture tested) (Cat# A8806 (SIGMA ALDRICH FLUKA CHEMICALS™)) at a density of 8×10^6 per ml. 170 μl RPMI 1640 (0.1% BSA) containing 60 nM S1P (Cat# SL-140 (BiOMOl™)) and/or desired drugs were added to the receiver plate of […] Millipore Multiscreen MIC plates (Cat# MAMI C3S 10, 3 um pore size (Millipore™)) and the filter plates were carefully placed over the receiver plate. […] After 30 min agitating at RT, the plate was read in a fluorescence plate reader using 480/520 nm filter set.

T2 sequence (Q99500 whole entry): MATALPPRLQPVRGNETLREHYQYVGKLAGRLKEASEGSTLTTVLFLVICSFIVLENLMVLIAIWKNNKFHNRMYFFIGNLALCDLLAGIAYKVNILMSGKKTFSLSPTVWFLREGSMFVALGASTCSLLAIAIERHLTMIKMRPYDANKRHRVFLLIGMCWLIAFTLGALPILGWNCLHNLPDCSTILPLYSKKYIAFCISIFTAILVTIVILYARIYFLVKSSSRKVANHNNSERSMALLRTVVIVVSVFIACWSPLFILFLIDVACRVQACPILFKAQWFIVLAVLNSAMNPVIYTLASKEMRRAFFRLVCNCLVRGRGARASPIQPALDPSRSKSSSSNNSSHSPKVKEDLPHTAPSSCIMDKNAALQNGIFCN
T1 sequence (P21453 whole entry): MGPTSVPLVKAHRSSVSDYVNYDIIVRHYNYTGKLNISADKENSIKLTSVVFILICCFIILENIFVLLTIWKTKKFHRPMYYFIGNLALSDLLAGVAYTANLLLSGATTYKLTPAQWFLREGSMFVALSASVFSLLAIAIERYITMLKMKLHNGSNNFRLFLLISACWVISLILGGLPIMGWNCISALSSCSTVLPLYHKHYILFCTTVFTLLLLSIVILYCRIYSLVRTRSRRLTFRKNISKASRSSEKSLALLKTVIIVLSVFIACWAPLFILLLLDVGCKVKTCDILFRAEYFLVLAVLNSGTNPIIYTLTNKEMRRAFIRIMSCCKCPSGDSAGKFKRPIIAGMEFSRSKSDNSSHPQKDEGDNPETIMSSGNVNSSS

| Structure (SMILES) | inhibition of migration of EDG1 #15 clone [1] | differential inhibition of EDG1 and EDG3 migration ([2]; EDG1 versus EDG3 clones, FIG. 10B) | inhibition of migration of EDG3 #1 clone ([2]; EDG3-overexpressing T lymphoid cells, migration in response to S1P) |
| --- | --- | --- | --- |
| CCCCCCCCc1ccc(CCC(N)(CO)CO)cc1 [FTY720, 2-amino-2(2-[4-octylphenylethyl)-1,3-propanediol hydrochloride] | inhibition of migration; also recorded: specifically inhibit; also recorded: inhibits the migration of EDG1#15 clone | – | – |
| Cc1ccc(C(=O)Nc2ccc(S(=O)(=O)O)c3cc(S(=O)(=O)O)cc(S(=O)(=O)O)c23)cc1NC(=O)c1cccc(NC(=O)Nc2cccc(C(=O)Nc3cc(C(=O)Nc4ccc(S(=O)(=O)O)c5cc(S(=O)(=O)O)cc(S(=O)(=O)O)c45)ccc3C)c2)c1 [suramin] | – | differential inhibition of EDG1 and EDG3 migration | specifically inhibit; also recorded: inhibition of EDG3 #1 clone migration |
